One test has as its system TNFα. Description: cells. Type of test: cell-based, human. To be noted: Homo sapiens, Monocyte, LPS-stimulated human monocytes, TNFα content; read-out: EC50 TNF.
In another test the target is IRAK4 enzyme (Homo sapiens (Human), UniProt Q9NWZ3). The test is described as follows: biochemical. The following applies: IRAK4 enzyme, TR-FRET (HTRF), 500 μM ATP. Type of test: biochemical. On the technique in general: In TR-FRET formats the signal depends on donor and acceptor labels being close together.
IRAK4 enzyme, sequence (Q9NWZ3 whole entry): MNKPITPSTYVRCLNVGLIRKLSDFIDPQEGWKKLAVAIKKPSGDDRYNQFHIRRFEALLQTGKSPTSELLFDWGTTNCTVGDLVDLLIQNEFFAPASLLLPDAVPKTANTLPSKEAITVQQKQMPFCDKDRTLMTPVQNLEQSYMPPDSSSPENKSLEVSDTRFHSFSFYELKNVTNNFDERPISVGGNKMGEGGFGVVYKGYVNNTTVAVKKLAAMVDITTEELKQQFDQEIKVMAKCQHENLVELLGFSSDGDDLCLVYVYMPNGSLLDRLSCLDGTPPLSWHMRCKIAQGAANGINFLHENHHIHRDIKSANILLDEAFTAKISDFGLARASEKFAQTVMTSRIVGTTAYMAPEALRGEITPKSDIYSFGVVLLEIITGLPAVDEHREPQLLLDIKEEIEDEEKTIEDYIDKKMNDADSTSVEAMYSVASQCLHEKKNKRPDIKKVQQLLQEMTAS

Regarding `CNc1cc(-c2ccc3cc(C#N)cnn23)ncc1C(=O)NCC#N` [Example 463, N-(cyanomethyl)-6-(3-cyanopyrrolo[1,2-b]pyridazin-7-yl)-4-(methylamino)nicotinamide], the concentration for a half-maximal effect (EC50) (in general, the concentration needed to bring the measured effect to its halfway point) in the test with TNFα amounted to 163 nM. Moreover, 3 nM corresponded to half-maximal inhibition on IRAK4 enzyme (IC50).
For `CNC(=O)c1cnc(-c2ccc3cc(C#N)cnn23)cc1N[C@@H]1CCC[C@@H](C(=O)NC)C1` [Example 464, 6-(3-cyanopyrrolo[1,2-b]pyridazin-7-yl)-N-methyl-4-(((1R,3R)-3-(methylcarbamoyl)cyclohexyl)amino) nicotinamide], in the test on TNFα, the EC50 was 1110 nM. For the same compound, at IRAK4 enzyme, the 50% inhibitory concentration (IC50) (commonly the concentration that gives 50% inhibition) worked out at 23 nM.
For the compound `CNC(=O)c1cnc(-c2ccc3cc(C#N)cnn23)cc1N[C@H]1CC[C@@H](C(=O)NC)C1` [Example 465, 6-(3-cyanopyrrolo[1,2-b]pyridazin-7-yl)-N-methyl-4-(((1S,3R)-3-(methyl-carbamoyl)cyclopentyl)amino)nicotinamide], in the test on TNFα, the half-maximal effective concentration (EC50) is 411 nM. Besides, the IC50 on IRAK4 enzyme was determined as 8 nM.
In the same order, the values of `CNC(=O)c1cnc(-c2ccc3cc(C#N)cnn23)cc1N[C@@H]1CC[C@@H](C(=O)NC)C1` [Example 466, 6-(3-cyanopyrrolo[1,2-b]pyridazin-7-yl)-N-methyl-4-(((1R,3R)-3-(methyl-carbamoyl)cyclopentyl)amino)nicotinamide] are 259 nM and 8 nM.
On to `CNC(=O)c1cnc(-c2ccc3cc(C#N)cnn23)cc1N[C@H]1CC[C@H](C(=O)NC)C1` [Example 467, 6-(3-cyanopyrrolo[1,2-b]pyridazin-7-yl)-N-methyl-4-(((1S,3S)-3-(methylcarbamoyl)cyclo-pentyl)amino)nicotinamide], for which the EC50 in the test with TNFα came out at 167 nM. For the same compound, the IC50 against IRAK4 enzyme turned out to be 4 nM.
`CNC(=O)c1cnc(-c2ccc3cc(C#N)cnn23)cc1NC12CCC(C(=O)NC)(CC1)C2` [Example 468, 6-(3-cyanopyrrolo[1,2-b]pyridazin-7-yl)-N-methyl-4-((4-(methylcarbamoyl)bicyclo[2.2.1]heptan-1-yl)amino)nicotinamide]: the concentration for a half-maximal effect (EC50) with TNFα is 112 nM. At IRAK4 enzyme, this compound came in with a half-inhibitory concentration (IC50) of 1 nM.
In the case of `CNC(=O)c1cnc(-c2ccc3cc(C#N)cnn23)cc1N[C@@H]1CC[C@H](C(=O)NC)C1` [Example 469, 6-(3-cyanopyrrolo[1,2-b]pyridazin-7-yl)-N-methyl-4-(((1R,3S)-3-(methylcarbamoyl)cyclo-pentyl)amino)nicotinamide], the EC50 with TNFα was determined as 1100 nM. This compound also registered an IC50 at IRAK4 enzyme of 41 nM.
For `CNC(=O)c1cnc(-c2ccc3cc(C#N)cnn23)cc1N[C@H]1CCC[C@@H](C(=O)NC)C1` [Example 470, 6-(3-cyanopyrrolo[1,2-b]pyridazin-7-yl)-N-methyl-4-(((1S,3R)-3-(methyl-carbamoyl)cyclohexyl)amino)nicotinamide], the EC50 in the test with TNFα worked out at 440 nM. Moreover, the 50% inhibitory concentration (IC50) against IRAK4 enzyme was determined as 25 nM.
With `CNC(=O)c1cnc(-c2ccc3cc(C#N)cnn23)cc1N[C@H]1C[C@@H](C(=O)NC)C1` [Example 471, 6-(3-cyanopyrrolo[1,2-b]pyridazin-7-yl)-N-methyl-4-(((1s,3s)-3-(methylcarbamoyl)cyclobutyl)amino) nicotinamide], the EC50 with TNFα amounted to 74 nM. This compound came in with an IC50 against IRAK4 enzyme of 9 nM.
Regarding `CNC(=O)c1cnc(-c2ccc3cc(C#N)cnn23)cc1N[C@H]1C[C@H](C(=O)NC)C1` [Example 472, 6-(3-cyanopyrrolo[1,2-b]pyridazin-7-yl)-N-methyl-4-(((1r,3r)-3-(methylcarbamoyl)cyclobutyl)amino) nicotinamide], in the test on TNFα, the EC50 amounted to 5410 nM. In addition, it took 43 nM to reach half-maximal inhibition at IRAK4 enzyme (IC50).
Consider `CNC(=O)c1cnc(-c2ccc3cc(C#N)cnn23)cc1NC12CCC(NC(C)=O)(CC1)C2` [Example 473, 4-((4-acetamido-bicyclo[2.2.1]heptan-1-yl)amino)-6-(3-cyano-pyrrolo[1,2-b]pyridazin-7-yl)-N-methylnicotinamide], for which the EC50 with TNFα is 33 nM. Further, it took 1 nM to reach half-maximal inhibition against IRAK4 enzyme (IC50).
Consider `N#CCNC(=O)c1cnc(-c2ccc3cc(C#N)cnn23)cc1NC12CCC(C(=O)N3CC(F)(F)C3)(CC1)CC2` [Example 474, N-(cyanomethyl)-6-(3-cyanopyrrolo[1,2-b]pyridazin-7-yl)-4-((4-(3,3-difluoroazetidine-1-carbonyl)bicyclo[2.2.2]octan-1-yl)amino)nicotinamide], for which the EC50 in the test with TNFα amounted to 23 nM. Also, the IC50 against IRAK4 enzyme is under 1 nM.
`CNC(=O)C12CCC(Nc3cc(-c4ccc5cc(C#N)cnn45)ncc3C(=O)NCC#N)(CC1)CC2` [Example 475, N-(cyanomethyl)-6-(3-cyanopyrrolo[1,2-b]pyridazin-7-yl)-4-((4-(methylcarbamoyl)bicyclo[2.2.2]octan-1-yl)amino)nicotinamide]: the EC50 with TNFα turned out to be 16 nM. Moreover, at IRAK4 enzyme, the IC50 is under 1 nM.
For the compound `CC(=O)NC12CCC(Nc3cc(-c4ccc5cc(C#N)cnn45)ncc3C(=O)NCC#N)(CC1)CC2` [Example 476, 4-((4-acetamido-bicyclo[2.2.2]octan-1-yl)amino)-N-(cyano-methyl)-6-(3-cyano-pyrrolo[1,2-b]pyridazin-7-yl)nicotinamide], the 50% effective concentration (EC50) with TNFα came out at 27 nM. The compound also displayed a half-maximal inhibitory concentration (IC50) at IRAK4 enzyme of under 1 nM.
Take `CC(=O)NC12CC(Nc3cc(-c4ccc5cc(C#N)cnn45)ncc3C(=O)NC3CCC(C(=O)N4CCOCC4)CC3)(C1)C2` (stereo not drawn) [Example 477, 4-((3-acetamido-bicyclo[1.1.1]pentan-1-yl)amino)-6-(3-cyano-pyrrolo[1,2-b]pyridazin-7-yl)-N-((1r,4r)-4-(morpholine-4-carbonyl)cyclohexyl) nicotinamide]: in the test with TNFα, the 50% effective concentration (EC50) was found to be 98 nM. Besides, the half-maximal inhibitory concentration (IC50) against IRAK4 enzyme was determined as 1 nM.
Turning to `CC(=O)NC12CC(Nc3cc(-c4ccc5cc(C#N)cnn45)ncc3C(=O)N[C@H]3CC[C@H](C(=O)N4CC(F)(F)C4)CC3)(C1)C2` [Example 478, 4-((3-acetamido-bicyclo[1.1.1]pentan-1-yl)amino)-6-(3-cyano-pyrrolo[1,2-b]pyridazin-7-yl)-N-((1r,4r)-4-(3,3-difluoroazetidine-1-carbonyl)cyclohexyl) nicotinamide], in the test with TNFα, the concentration giving a half-maximal response (EC50) came out at 73 nM. In addition, half-maximal inhibition against IRAK4 enzyme (IC50) was put at 1 nM.
On to `CNC(=O)[C@H]1CC[C@H](NC(=O)c2cnc(-c3ccc4cc(C#N)cnn34)cc2NC23CC(NC(C)=O)(C2)C3)CC1` [Example 479, 4-((3-acetamidobicyclo[1.1.1]pentan-1-yl)amino)-6-(3-cyanopyrrolo[1,2-b]pyridazin-7-yl)-N-((1r,4r)-4-(methylcarbamoyl)cyclohexyl)nicotinamide], for which the concentration giving a half-maximal response (EC50) with TNFα was 71 nM. Further, the IC50 against IRAK4 enzyme was under 1 nM.
On to `CNC(=O)c1cnc(-c2ccc3cc(C#N)cnn23)cc1NC12CC(NC(=O)C3CC3)(C1)C2` [Example 480, 6-(3-cyanopyrrolo[1,2-b]pyridazin-7-yl)-4-((3-(cyclopropanecarboxamido)bicyclo[1.1.1]pentan-1-yl)amino)-N-methylnicotin-amide], for which the half-maximal effective concentration (EC50) with TNFα came out at 92 nM. The compound further gave an IC50 against IRAK4 enzyme of 2 nM.
Consider `CNC(=O)c1cnc(-c2ccc3cc(C#N)cnn23)cc1NC12CCC(C(=O)NC3CC3)(CC1)CC2` [Example 481, 6-(3-cyanopyrrolo[1,2-b]pyridazin-7-yl)-4-((4-(cyclopropylcarbamoyl)bicyclo[2.2.2]octan-1-yl)amino)-N-methylnicotinamide], for which, in the test with TNFα, the 50% effective concentration (EC50) was determined as 63 nM. 2 nM corresponded to half-maximal inhibition on IRAK4 enzyme (IC50).
Regarding `CNC(=O)c1cnc(-c2ccc3cc(C#N)cnn23)cc1NC12CCC(NC(C)=O)(CC1)CC2` [Example 482, 4-((4-acetamido-bicyclo[2.2.2]octan-1-yl)amino)-6-(3-cyano-pyrrolo[1,2-b]pyridazin-7-yl)-N-methylnicotinamide], the EC50 in the test on TNFα turned out to be 48 nM. The compound further returned a 50% inhibitory concentration (IC50) against IRAK4 enzyme of 1 nM.
Take `CNC(=O)c1cnc(-c2ccc3cc(C#N)cnn23)cc1NC12CCC(C(=O)N3CC(F)(F)C3)(CC1)CC2` [Example 483, 6-(3-cyanopyrrolo[1,2-b]pyridazin-7-yl)-4-((4-(3,3-difluoroazetidine-1-carbonyl)bicyclo[2.2.2]octan-1-yl)amino)-N-methylnicotinamide]: in the test with TNFα, the EC50 amounted to 64 nM. Moreover, the IC50 against IRAK4 enzyme was 1 nM.
Regarding `CNC(=O)c1cnc(-c2ccc3cc(C#N)cnn23)cc1NC12CCC(C(=O)N3CCC3)(CC1)CC2` [Example 484, 4-((4-(azetidine-1-carbonyl)bicyclo[2.2.2]octan-1-yl)amino)-6-(3-cyanopyrrolo[1,2-b]pyridazin-7-yl)-N-methyl-nicotinamide], the half-maximal effective concentration (EC50) in the test on TNFα amounted to 63 nM. On IRAK4 enzyme, this compound showed a 50% inhibitory concentration (IC50) of 1 nM.
As for `CNC(=O)c1cnc(-c2ccc3cc(C#N)cnn23)cc1NC12CCC(C(=O)NC)(CC1)CC2` [Example 485, 6-(3-cyanopyrrolo[1,2-b]pyridazin-7-yl)-N-methyl-4-((4-(methyl-carbamoyl)bicyclo[2.2.2]octan-1-yl)amino) nicotinamide], in the test with TNFα, the EC50 is 39 nM. Also, the half-inhibitory concentration (IC50) against IRAK4 enzyme amounted to 1 nM.
Regarding `CNC(=O)c1cnc(-c2ccc3cc(C#N)cnn23)cc1NC12CCC(NC(=O)OC)(CC1)CC2` [Example 486, methyl (4-((2-(3-cyano-pyrrolo[1,2-b]pyridazin-7-yl)-5-(methylcarbamoyl)pyridin-4-yl)amino)bicyclo[2.2.2]octan-1-yl)carbamate], in the test with TNFα, the concentration giving a half-maximal response (EC50) stood at 64 nM. The compound also registered a 50% inhibitory concentration (IC50) against IRAK4 enzyme of 1 nM.
Turning to `COC(=O)NC12CC(Nc3cc(-c4ccc5cc(C#N)cnn45)ncc3C(=O)NCC#N)(C1)C2` [Example 487, methyl (3-((5-((cyanomethyl)carbamoyl)-2-(3-cyanopyrrolo[1,2-b]pyridazin-7-yl)pyridin-4-yl)amino)bicyclo[1.1.1]pentan-1-yl)carbamate], the half-maximal effective concentration (EC50) in the test with TNFα is 51 nM. Also, the IC50 on IRAK4 enzyme is under 1 nM.
As for `CNC(=O)c1cnc(-c2ccc3cc(C#N)cnn23)cc1NC12CC(NC(=O)OC)(C1)C2` [Example 488, methyl (3-((2-(3-cyano-pyrrolo[1,2-b]pyridazin-7-yl)-5-(methylcarbamoyl)pyridin-4-yl)amino)bicyclo[1.1.1]pentan-1-yl)carbamate], the EC50 with TNFα stood at 71 nM. On IRAK4 enzyme, this compound displayed an IC50 of 1 nM.
For `CNC(=O)c1cnc(-c2ccc3cc(C#N)cnn23)cc1NC12CC(C1)C2` [Example 489, 4-(bicyclo[1.1.1]pentan-1-ylamino)-6-(3-cyano-pyrrolo[1,2-b]pyridazin-7-yl)-N-methylnicotinamide], in the test with TNFα, the EC50 came out at 121 nM. The compound also registered an IC50 against IRAK4 enzyme of 2 nM.

Source of the values: patent publication US10336762B2 (priority 2017, dated 2019).
